# Reference: paper PMC8214221, “Sequence determinants in the cathelicidin LL-37 that promote inflammation via presentation of RNA to scavenger receptors” (The Journal of Biological Chemistry, 2021)
# Residues, ends and D or L forms follow the SMILES beside them.
# Test system: normal human epidermal keratinocytes (NHEKs)
# Experiment: LDH release cytotoxicity assay in keratinocytes
# Assay type: cell-based
# Settings: minimal concentration giving 50% LDH release by NHEKs
# From the text: Since LL-34 was the minimal truncation mutant of LL-37 that retained both antimicrobial and immune modulatory activity, we prepared a series of synthetic peptides with sequential substitutions of alanine at each amino acid position of the LL-34 parent peptide (Table 1). We compared the minimum inhibitory concentration (MIC) for the LL-34 parent peptide and the alanine mutants (LL-34 peptides—L1A and R34A) against methicillin-resistant Staphylococcus aureus strain USA300 (Fig. 1A). LL-34 peptides were incubated at concentrations of 0 to 100 μM with bacteria. The minimal concentration at which no growth was observed was noted after 18 h of incubation. […] Because of these changes in the MIC against S. aureus between the mutants, we investigated the effective toxicity profile of the peptides in normal human epidermal keratinocytes (NHEKs) by lactate dehydrogenase (LDH) release assay (Table 1). […] Most other peptides were cytotoxic at a minimal concentration of 10 μM, whereas LL-34—K15A was toxic at a concentration of 2.5 μM.
# LDH cytotoxicity assay was performed according to manufacturer's instructions (Thermo Fisher Scientific). Culture supernatants from keratinocytes were used fresh for LDH assay after experimental treatments.
row,Structure (SMILES),Minimal cytotoxic concentration in NHEK (LD50) [µM]
1,CC[C@H](C)[C@H](NC(=O)[C@H](CCCCN)NC(=O)[C@H](CCC(=O)O)NC(=O)[C@H](CCCCN)NC(=O)[C@H](CO)NC(=O)[C@H](CCCCN)NC(=O)[C@H](CCCNC(=N)N)NC(=O)[C@H](Cc1ccccc1)NC(=O)[C@H](Cc1ccccc1)NC(=O)[C@H](CC(=O)O)NC(=O)CNC(=O)[C@H](CC(C)C)NC(=O)[C@H](C)N)C(=O)NCC(=O)N[C@@H](CCCCN)C(=O)N[C@@H](CCC(=O)O)C(=O)N[C@@H](Cc1ccccc1)C(=O)N[C@@H](CCCCN)C(=O)N[C@@H](CCCNC(=N)N)C(=O)N[C@H](C(=O)N[C@H](C(=O)N[C@@H](CCC(N)=O)C(=O)N[C@@H](CCCNC(=N)N)C(=O)N[C@H](C(=O)N[C@@H](CCCCN)C(=O)N[C@@H](CC(=O)O)C(=O)N[C@@H](Cc1ccccc1)C(=O)N[C@@H](CC(C)C)C(=O)N[C@@H](CCCNC(=N)N)C(=O)N[C@@H](CC(N)=O)C(=O)N[C@@H](CC(C)C)C(=O)N[C@H](C(=O)N1CCC[C@H]1C(=O)N[C@@H](CCCNC(=N)N)C(=O)O)C(C)C)[C@@H](C)CC)C(C)C)[C@@H](C)CC [LL-34—L1A] (H-ALGDFFRKSKEKIGKEFKRIVQRIKDFLRNLVPR-OH; N-terminus and C-terminus assumed),5
2,CC[C@H](C)[C@H](NC(=O)[C@H](CCCCN)NC(=O)[C@H](CCC(=O)O)NC(=O)[C@H](CCCCN)NC(=O)[C@H](CO)NC(=O)[C@H](CCCCN)NC(=O)[C@H](CCCNC(=N)N)NC(=O)[C@H](Cc1ccccc1)NC(=O)[C@H](Cc1ccccc1)NC(=O)[C@H](CC(=O)O)NC(=O)CNC(=O)[C@H](C)NC(=O)[C@@H](N)CC(C)C)C(=O)NCC(=O)N[C@@H](CCCCN)C(=O)N[C@@H](CCC(=O)O)C(=O)N[C@@H](Cc1ccccc1)C(=O)N[C@@H](CCCCN)C(=O)N[C@@H](CCCNC(=N)N)C(=O)N[C@H](C(=O)N[C@H](C(=O)N[C@@H](CCC(N)=O)C(=O)N[C@@H](CCCNC(=N)N)C(=O)N[C@H](C(=O)N[C@@H](CCCCN)C(=O)N[C@@H](CC(=O)O)C(=O)N[C@@H](Cc1ccccc1)C(=O)N[C@@H](CC(C)C)C(=O)N[C@@H](CCCNC(=N)N)C(=O)N[C@@H](CC(N)=O)C(=O)N[C@@H](CC(C)C)C(=O)N[C@H](C(=O)N1CCC[C@H]1C(=O)N[C@@H](CCCNC(=N)N)C(=O)O)C(C)C)[C@@H](C)CC)C(C)C)[C@@H](C)CC [LL-34—L2A] (H-LAGDFFRKSKEKIGKEFKRIVQRIKDFLRNLVPR-OH; N-terminus and C-terminus assumed),5
3,CC[C@H](C)[C@H](NC(=O)[C@H](CCCCN)NC(=O)[C@H](CCC(=O)O)NC(=O)[C@H](CCCCN)NC(=O)[C@H](CO)NC(=O)[C@H](CCCCN)NC(=O)[C@H](CCCNC(=N)N)NC(=O)[C@H](Cc1ccccc1)NC(=O)[C@H](Cc1ccccc1)NC(=O)[C@H](CC(=O)O)NC(=O)CNC(=O)[C@H](CC(C)C)NC(=O)[C@@H](N)CC(C)C)C(=O)NCC(=O)N[C@@H](CCCCN)C(=O)N[C@@H](CCC(=O)O)C(=O)N[C@@H](Cc1ccccc1)C(=O)N[C@@H](CCCCN)C(=O)N[C@@H](CCCNC(=N)N)C(=O)N[C@H](C(=O)N[C@H](C(=O)N[C@@H](CCC(N)=O)C(=O)N[C@@H](CCCNC(=N)N)C(=O)N[C@H](C(=O)N[C@@H](CCCCN)C(=O)N[C@@H](CC(=O)O)C(=O)N[C@@H](Cc1ccccc1)C(=O)N[C@@H](CC(C)C)C(=O)N[C@@H](CCCNC(=N)N)C(=O)N[C@@H](C)C(=O)N[C@@H](CC(C)C)C(=O)N[C@H](C(=O)N1CCC[C@H]1C(=O)N[C@@H](CCCNC(=N)N)C(=O)O)C(C)C)[C@@H](C)CC)C(C)C)[C@@H](C)CC [LL-34—N30A] (H-LLGDFFRKSKEKIGKEFKRIVQRIKDFLRALVPR-OH; N-terminus and C-terminus assumed),10
4,CC[C@H](C)[C@H](NC(=O)[C@H](CCCCN)NC(=O)[C@H](CCC(=O)O)NC(=O)[C@H](CCCCN)NC(=O)[C@H](CO)NC(=O)[C@H](CCCCN)NC(=O)[C@H](CCCNC(=N)N)NC(=O)[C@H](Cc1ccccc1)NC(=O)[C@H](Cc1ccccc1)NC(=O)[C@H](CC(=O)O)NC(=O)CNC(=O)[C@H](CC(C)C)NC(=O)[C@@H](N)CC(C)C)C(=O)NCC(=O)N[C@@H](CCCCN)C(=O)N[C@@H](CCC(=O)O)C(=O)N[C@@H](Cc1ccccc1)C(=O)N[C@@H](CCCCN)C(=O)N[C@@H](CCCNC(=N)N)C(=O)N[C@H](C(=O)N[C@H](C(=O)N[C@@H](CCC(N)=O)C(=O)N[C@@H](CCCNC(=N)N)C(=O)N[C@H](C(=O)N[C@@H](CCCCN)C(=O)N[C@@H](CC(=O)O)C(=O)N[C@@H](Cc1ccccc1)C(=O)N[C@@H](CC(C)C)C(=O)N[C@@H](CCCNC(=N)N)C(=O)N[C@@H](CC(N)=O)C(=O)N[C@@H](CC(C)C)C(=O)N[C@H](C(=O)N[C@@H](C)C(=O)N[C@@H](CCCNC(=N)N)C(=O)O)C(C)C)[C@@H](C)CC)C(C)C)[C@@H](C)CC [LL-34—P33A] (H-LLGDFFRKSKEKIGKEFKRIVQRIKDFLRNLVAR-OH; N-terminus and C-terminus assumed),10
5,CC[C@H](C)[C@H](NC(=O)[C@H](CCCCN)NC(=O)[C@H](CCC(=O)O)NC(=O)[C@H](CCCCN)NC(=O)[C@H](CO)NC(=O)[C@H](CCCCN)NC(=O)[C@H](CCCNC(=N)N)NC(=O)[C@H](Cc1ccccc1)NC(=O)[C@H](Cc1ccccc1)NC(=O)[C@H](CC(=O)O)NC(=O)CNC(=O)[C@H](CC(C)C)NC(=O)[C@@H](N)CC(C)C)C(=O)NCC(=O)N[C@@H](CCCCN)C(=O)N[C@@H](CCC(=O)O)C(=O)N[C@@H](Cc1ccccc1)C(=O)N[C@@H](CCCCN)C(=O)N[C@@H](CCCNC(=N)N)C(=O)N[C@H](C(=O)N[C@H](C(=O)N[C@@H](C)C(=O)N[C@@H](CCCNC(=N)N)C(=O)N[C@H](C(=O)N[C@@H](CCCCN)C(=O)N[C@@H](CC(=O)O)C(=O)N[C@@H](Cc1ccccc1)C(=O)N[C@@H](CC(C)C)C(=O)N[C@@H](CCCNC(=N)N)C(=O)N[C@@H](CC(N)=O)C(=O)N[C@@H](CC(C)C)C(=O)N[C@H](C(=O)N1CCC[C@H]1C(=O)N[C@@H](CCCNC(=N)N)C(=O)O)C(C)C)[C@@H](C)CC)C(C)C)[C@@H](C)CC [LL-34—Q22A] (H-LLGDFFRKSKEKIGKEFKRIVARIKDFLRNLVPR-OH; N-terminus and C-terminus assumed),5
6,CC[C@H](C)[C@H](NC(=O)[C@H](CCCCN)NC(=O)[C@H](CCC(=O)O)NC(=O)[C@H](CCCCN)NC(=O)[C@H](CO)NC(=O)[C@H](CCCCN)NC(=O)[C@H](C)NC(=O)[C@H](Cc1ccccc1)NC(=O)[C@H](Cc1ccccc1)NC(=O)[C@H](CC(=O)O)NC(=O)CNC(=O)[C@H](CC(C)C)NC(=O)[C@@H](N)CC(C)C)C(=O)NCC(=O)N[C@@H](CCCCN)C(=O)N[C@@H](CCC(=O)O)C(=O)N[C@@H](Cc1ccccc1)C(=O)N[C@@H](CCCCN)C(=O)N[C@@H](CCCNC(=N)N)C(=O)N[C@H](C(=O)N[C@H](C(=O)N[C@@H](CCC(N)=O)C(=O)N[C@@H](CCCNC(=N)N)C(=O)N[C@H](C(=O)N[C@@H](CCCCN)C(=O)N[C@@H](CC(=O)O)C(=O)N[C@@H](Cc1ccccc1)C(=O)N[C@@H](CC(C)C)C(=O)N[C@@H](CCCNC(=N)N)C(=O)N[C@@H](CC(N)=O)C(=O)N[C@@H](CC(C)C)C(=O)N[C@H](C(=O)N1CCC[C@H]1C(=O)N[C@@H](CCCNC(=N)N)C(=O)O)C(C)C)[C@@H](C)CC)C(C)C)[C@@H](C)CC [LL-34—R7A] (H-LLGDFFAKSKEKIGKEFKRIVQRIKDFLRNLVPR-OH; N-terminus and C-terminus assumed),5
7,CC[C@H](C)[C@H](NC(=O)[C@H](C)NC(=O)[C@H](CCCCN)NC(=O)[C@H](Cc1ccccc1)NC(=O)[C@H](CCC(=O)O)NC(=O)[C@H](CCCCN)NC(=O)CNC(=O)[C@@H](NC(=O)[C@H](CCCCN)NC(=O)[C@H](CCC(=O)O)NC(=O)[C@H](CCCCN)NC(=O)[C@H](CO)NC(=O)[C@H](CCCCN)NC(=O)[C@H](CCCNC(=N)N)NC(=O)[C@H](Cc1ccccc1)NC(=O)[C@H](Cc1ccccc1)NC(=O)[C@H](CC(=O)O)NC(=O)CNC(=O)[C@H](CC(C)C)NC(=O)[C@@H](N)CC(C)C)[C@@H](C)CC)C(=O)N[C@H](C(=O)N[C@@H](CCC(N)=O)C(=O)N[C@@H](CCCNC(=N)N)C(=O)N[C@H](C(=O)N[C@@H](CCCCN)C(=O)N[C@@H](CC(=O)O)C(=O)N[C@@H](Cc1ccccc1)C(=O)N[C@@H](CC(C)C)C(=O)N[C@@H](CCCNC(=N)N)C(=O)N[C@@H](CC(N)=O)C(=O)N[C@@H](CC(C)C)C(=O)N[C@H](C(=O)N1CCC[C@H]1C(=O)N[C@@H](CCCNC(=N)N)C(=O)O)C(C)C)[C@@H](C)CC)C(C)C [LL-34—R19A] (H-LLGDFFRKSKEKIGKEFKAIVQRIKDFLRNLVPR-OH; N-terminus and C-terminus assumed),10
8,CC[C@H](C)[C@H](NC(=O)[C@H](CCCCN)NC(=O)[C@H](CCC(=O)O)NC(=O)[C@H](CCCCN)NC(=O)[C@H](CO)NC(=O)[C@H](CCCCN)NC(=O)[C@H](CCCNC(=N)N)NC(=O)[C@H](Cc1ccccc1)NC(=O)[C@H](Cc1ccccc1)NC(=O)[C@H](CC(=O)O)NC(=O)CNC(=O)[C@H](CC(C)C)NC(=O)[C@@H](N)CC(C)C)C(=O)NCC(=O)N[C@@H](CCCCN)C(=O)N[C@@H](CCC(=O)O)C(=O)N[C@@H](Cc1ccccc1)C(=O)N[C@@H](CCCCN)C(=O)N[C@@H](CCCNC(=N)N)C(=O)N[C@H](C(=O)N[C@H](C(=O)N[C@@H](CCC(N)=O)C(=O)N[C@@H](CCCNC(=N)N)C(=O)N[C@H](C(=O)N[C@@H](CCCCN)C(=O)N[C@@H](CC(=O)O)C(=O)N[C@@H](Cc1ccccc1)C(=O)N[C@@H](CC(C)C)C(=O)N[C@@H](C)C(=O)N[C@@H](CC(N)=O)C(=O)N[C@@H](CC(C)C)C(=O)N[C@H](C(=O)N1CCC[C@H]1C(=O)N[C@@H](CCCNC(=N)N)C(=O)O)C(C)C)[C@@H](C)CC)C(C)C)[C@@H](C)CC [LL-34—R29A] (H-LLGDFFRKSKEKIGKEFKRIVQRIKDFLANLVPR-OH; N-terminus and C-terminus assumed),5
